Experimental data from patent US20240423207A1, “PICOLINAMIDE COMPOUNDS WITH FUNGICIDAL ACTIVITY” (CORTEVA AGRISCIENCE LLC, priority 2014, published 2024).

Columns and labels:
Type in all cases: in vivo
[1] = system: Leptosphaeria nodorum; assay: Wheat Glume Blotch (LEPTNO) fungicidal activity on wheat seedlings; conditions: Parastagonospora nodorum, 24 h, 1 Day Protectant, read-out: LEPTNO 1 DP disease control
Description: Technical grades of materials were dissolved in acetone, which were then mixed with nine volumes of water (H2O) containing 110 ppm Triton X-100. The fungicide solutions were applied onto wheat seedlings using an automated booth sprayer to run-off. All sprayed plants were allowed to air dry prior to further handling. All fungicides were evaluated using the aforementioned method for their activity vs. all target diseases, unless stated otherwise. Wheat leaf blotch and brown rust activity were also evaluated using track spray applications, in which case the fungicides were formulated as EC formulations, containing 0.1% Trycol 5941 in the spray solutions. Wheat plants (variety Yuma) were grown from seed in a greenhouse in 50% mineral soil/50% soil-less Metro mix until the first leaf was fully emerged, with 7-10 seedlings per pot. These plants were inoculated with an aqueous spore suspension of Septoria tritici either prior to or after fungicide treatments. After inoculation the plants were kept in 100% relative humidity (one day in a dark dew chamber followed by two to three days in a lighted dew chamber at 20° C.) to permit spores to germinate and infect the leaf. The plants were then transferred to a greenhouse set at 20° C. for disease to develop. When disease symptoms were fully expressed on the 1st leaves of untreated plants, infection levels were assessed on a scale of 0 to 100 percent disease severity. Percent disease control was calculated using the ratio of disease severity on treated plants relative to untreated plants. Example C: Evaluation of Fungicidal Activity: Wheat Glume Blotch (Leptosphaeria nodorum; Bayer code […]) Wheat plants (variety Yuma) were grown from seed in a greenhouse in 50% mineral soil/50% soil-less Metro mix until the first leaf was fully emerged, with 7-10 seedlings per pot. These plants were inoculated with an aqueous spore suspension of Leptosphaeria nodorum 24 h after fungicide treatments. After inoculation the plants were kept in 100% relative humidity (one day in a dark dew chamber followed by two days in a lighted dew chamber at 20° C.) to permit spores to germinate and infect the leaf. The plants were then transferred to a greenhouse set at 20° C. for disease to develop. Fungicide formulation, application and disease assessment followed the procedures as described in the Example A.

[2] = system: Cercospora beticola; assay: Leaf Spot of Sugar Beets (CERCBE) fungicidal activity on sugar beet plants; conditions: 24 h, 1 Day Protectant, read-out: CERCBE 1 DP disease control
Description: Technical grades of materials were dissolved in acetone, which were then mixed with nine volumes of water (H2O) containing 110 ppm Triton X-100. The fungicide solutions were applied onto wheat seedlings using an automated booth sprayer to run-off. All sprayed plants were allowed to air dry prior to further handling. All fungicides were evaluated using the aforementioned method for their activity vs. all target diseases, unless stated otherwise. Wheat leaf blotch and brown rust activity were also evaluated using track spray applications, in which case the fungicides were formulated as EC formulations, containing 0.1% Trycol 5941 in the spray solutions. Wheat plants (variety Yuma) were grown from seed in a greenhouse in 50% mineral soil/50% soil-less Metro mix until the first leaf was fully emerged, with 7-10 seedlings per pot. These plants were inoculated with an aqueous spore suspension of Septoria tritici either prior to or after fungicide treatments. After inoculation the plants were kept in 100% relative humidity (one day in a dark dew chamber followed by two to three days in a lighted dew chamber at 20° C.) to permit spores to germinate and infect the leaf. The plants were then transferred to a greenhouse set at 20° C. for disease to develop. When disease symptoms were fully expressed on the 1st leaves of untreated plants, infection levels were assessed on a scale of 0 to 100 percent disease severity. Percent disease control was calculated using the ratio of disease severity on treated plants relative to untreated plants. Example E: Evaluation of Fungicidal Activity: Leaf Spot of Sugar Beets (Cercospora beticola; Bayer code CERCBE) Sugar beet plants (variety HH88) were grown in soil-less Metro mix and trimmed regularly to maintain a uniform plant size prior to test. Plants were inoculated with a spore suspension 24 h after fungicide treatments. Inoculated plants were kept in a dew chamber at 22° C. for 48 h then incubated in a greenhouse set at 24° C. under a clear plastic hood with bottom ventilation until disease symptoms were fully expressed. Fungicide formulation, application and disease assessment on the sprayed leaves followed the procedures as described in the Example A.

[3] = system: Magnaporthe grisea; Anamorph: Pyricularia oryzae; assay: whole plant or invertebrate; conditions: 24 h, read-out: PYRIOR 1 DP disease control
[4] = system: Venturia inaequalis; assay: Apple Scab (VENTIN) fungicidal activity on apple seedlings; conditions: 24 h, 1 Day Protectant, read-out: VENTIN 1 DP disease control
Description: Technical grades of materials were dissolved in acetone, which were then mixed with nine volumes of water (H2O) containing 110 ppm Triton X-100. The fungicide solutions were applied onto wheat seedlings using an automated booth sprayer to run-off. All sprayed plants were allowed to air dry prior to further handling. All fungicides were evaluated using the aforementioned method for their activity vs. all target diseases, unless stated otherwise. Wheat leaf blotch and brown rust activity were also evaluated using track spray applications, in which case the fungicides were formulated as EC formulations, containing 0.1% Trycol 5941 in the spray solutions. Wheat plants (variety Yuma) were grown from seed in a greenhouse in 50% mineral soil/50% soil-less Metro mix until the first leaf was fully emerged, with 7-10 seedlings per pot. These plants were inoculated with an aqueous spore suspension of Septoria tritici either prior to or after fungicide treatments. After inoculation the plants were kept in 100% relative humidity (one day in a dark dew chamber followed by two to three days in a lighted dew chamber at 20° C.) to permit spores to germinate and infect the leaf. The plants were then transferred to a greenhouse set at 20° C. for disease to develop. When disease symptoms were fully expressed on the 1st leaves of untreated plants, infection levels were assessed on a scale of 0 to 100 percent disease severity. Percent disease control was calculated using the ratio of disease severity on treated plants relative to untreated plants. Example D: Evaluation of Fungicidal Activity: Apple Scab (Venturia inaequalis; Bayer code […]) Apple seedlings (variety McIntosh) were grown in soil-less Metro mix, with one plant per pot. Seedlings with two expanding young leaves at the top (older leaves at bottom of the plants were trimmed) were used in the test. Plants were inoculated with a spore suspension of Venturia inaequalis 24 h after fungicide treatment and kept in a 22° C. dew chamber with 100% relative humidity for 48 h, and then moved to a greenhouse set at 20° C. for disease to develop. Fungicide formulation, application and disease assessment on the sprayed leaves followed the procedures as described in the Example A.

Compound	pest or weed control at 100 ppm [1]	pest or weed control at 100 ppm [2]	pest or weed control at 100 ppm [3]	pest or weed control at 100 ppm [4]
COc1ccnc(C(=O)N[C@@H](C)C(=O)O[C@@H](C)C(c2ccccc2)c2ccccc2)c1OC(C)=O [Cmpd 139, (S)-(S)-1,1-diphenylpropan-2-yl 2-(3-acetoxy-4-methoxypicolinamido)propanoate]	> 80%	> 80%	> 80%	> 80%
COc1ccnc(C(=O)N[C@@H](C)C(=O)O[C@@H](C)C(c2ccccc2)c2ccccc2)c1OC(=O)C(C)C [Cmpd 140]	> 80%	> 80%	> 80%	> 80%
COc1ccnc(C(=O)N[C@@H](C)C(=O)O[C@@H](C)C(c2ccccc2)c2ccccc2)c1OCOC(C)=O [Cmpd 141, (S)-(S)-1,1-diphenylpropan-2-yl 2-(3-(acetoxymethoxy)-4-methoxypicolinamido)propanoate]	> 80%	> 80%	> 80%	> 80%
COc1ccnc(C(=O)N[C@@H](C)C(=O)O[C@@H](C)C(c2ccccc2)c2ccccc2)c1OCOC(=O)C(C)C [Cmpd 142, (S)-(S)-1,1-diphenylpropan-2-yl 2-(3-((isobutyryloxy)methoxy)-4-methoxypicolinamido)propanoate]	> 80%	> 80%	> 80%	> 80%
COc1ccnc(C(=O)N[C@@H](C)C(=O)O[C@@H](C)C(c2ccc(F)cc2)c2ccc(F)cc2)c1OC(C)=O [Cmpd 145]	> 80%	> 80%	> 80%	> 80%
COc1ccnc(C(=O)N[C@@H](C)C(=O)O[C@@H](C)C(c2ccc(F)cc2)c2ccc(F)cc2)c1OCOC(C)=O [Cmpd 146]	> 80%	> 80%	> 80%	> 80%
COc1ccnc(C(=O)N[C@@H](C)C(=O)O[C@@H](C)C(c2ccc(F)cc2F)c2ccc(F)cc2F)c1OCOC(C)=O [Cmpd 148]	> 80%	> 80%	> 80%	> 80%
COc1ccnc(C(=O)N[C@@H](C)C(=O)O[C@@H](C)C(c2ccc(F)cc2F)c2ccc(F)cc2F)c1OC(C)=O [Cmpd 150]	> 80%	> 80%	> 80%	> 80%
COc1ccnc(C(=O)N[C@@H](C)C(=O)O[C@@H](C)C(c2ccc(Cl)cc2)c2ccc(Cl)cc2)c1OC(C)=O [Cmpd 174]	> 80%	> 80%	> 80%	< 80%
COc1ccnc(C(=O)N[C@@H](C)C(=O)O[C@@H](C)C(c2ccc(Cl)cc2)c2ccc(Cl)cc2)c1OCOC(C)=O [Cmpd 176]	> 80%	> 80%	> 80%	> 80%
